Among the data in the NIST ThermoML archive (doi:10.1016/j.jct.2007.01.012) are mass density values, retold here.

The conditions of this series: 101.33 kPa, Liquid.

± gives the expanded uncertainty stated by the source.

A word on the mass density: it is the mass of a sample divided by its volume. For the compound `CCn1cc[n+](C)c1.COCCOCCOS(=O)(=O)[O-]` [1-ethyl-3-methylimidazolium 2-(2-methoxyethoxy) ethylsulfate], the mass density was found to be 1236.5 ± 2.9 kg/m3 (298.15 K), 1232.6 ± 2.9 kg/m3 (303.15 K) and 1225.6 ± 2.8 kg/m3 (313.15 K).

In the case of `CO` [methanol], the mass density is, setting by setting: (298.15 K) 786.7 ± 1.4 kg/m3; (303.15 K) 782 ± 1.4 kg/m3; (313.15 K) 772.7 ± 1.4 kg/m3.
